What was measured:
[1] = target: T1, Adenosine receptor A1 (Rattus norvegicus) (UniProt P25099); test: (§1) Reduction of heart rate (A1 response) in isolated rat heart preparation; assay type: functional, tissue-based
T1 sequence (whole entry): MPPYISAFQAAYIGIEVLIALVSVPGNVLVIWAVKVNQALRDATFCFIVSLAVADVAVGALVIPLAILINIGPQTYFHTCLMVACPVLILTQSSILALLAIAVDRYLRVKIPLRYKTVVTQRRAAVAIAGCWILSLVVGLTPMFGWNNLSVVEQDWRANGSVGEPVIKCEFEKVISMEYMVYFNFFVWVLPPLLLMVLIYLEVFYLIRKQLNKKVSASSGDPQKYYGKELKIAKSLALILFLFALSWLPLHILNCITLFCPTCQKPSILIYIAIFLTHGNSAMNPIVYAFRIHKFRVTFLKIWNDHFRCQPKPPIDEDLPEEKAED

[2] = target: T2, Adenosine receptor A1 (Rattus norvegicus, UniProt P25099)
T2 sequence (P25099 whole entry): T1 sequence (whole entry)
Description: Binding affinity towards adenosine A1 receptor on rat whole brain membrane using [3H]N6-cyclohexyladenosine

[3] = target: Adenosine A2 receptor (Rattus norvegicus, UniProt P29276+P30543)
Description: Binding affinity towards adenosine A2 receptor on rat striatal membrane using [3H]NECA as radioligand

[4] = target: T3, Adenosine A2 receptor (Rattus norvegicus) (UniProt P29276+P30543)
[5] = target: T3, Adenosine A2 receptor (Rattus norvegicus); remark: listed apart in the source
[6] = species on record: Rattus norvegicus; test: Enhancement of coronary flow (A2 response) in isolated rat heart preparation; assay type: functional
[7] = species on record: Rattus norvegicus; test: as §1; assay type: functional

SMILES	EC25 [1]	Ki [2]	Ki [3]	EC25 [4]	EC25 [5]	EC25 [6]	EC25 [7]
OC[C@H]1OC(n2cnc3c(NCCC4c5ccccc5-c5ccccc54)ncnc32)[C@H](O)[C@@H]1O (stereo partly specified)	> 3 µM	0.32 µM	4.3 µM	0.4 µM	–	–	–
OC[C@H]1OC(n2cnc3c(NCc4c5ccccc5cc5ccccc45)ncnc32)[C@H](O)[C@@H]1O (stereo partly specified)	–	9 µM	29 µM	–	–	–	–
OC[C@H]1O[C@@H](n2cnc3c(NCC4c5ccccc5-c5ccccc54)ncnc32)[C@H](O)[C@@H]1O	0.1 µM	–	–	0.002 µM	–	–	–
C[C@H](Cc1ccccc1)Nc1ncnc2c1ncn2[C@@H]1O[C@H](CO)[C@@H](O)[C@H]1O	0.013 µM	–	–	–	0.01 µM	–	–
OC[C@H]1OC(n2cnc3c(NCC4c5ccccc5Oc5ccccc54)ncnc32)[C@H](O)[C@@H]1O (stereo partly specified)	1.2 µM	0.062 µM	0.048 µM	0.002 µM	–	–	–
OC[C@H]1O[C@@H](n2cnc3c(NCC(c4ccccc4)c4ccccc4)ncnc32)[C@H](O)[C@@H]1O	0.09 µM	–	–	–	0.01 µM	–	–
CCNC(=O)[C@H]1O[C@@H](n2cnc3c(N)ncnc32)[C@H](O)[C@@H]1O [NECA]	–	–	–	–	–	0.0011 µM	0.021 µM
Nc1nc(Nc2ccccc2)nc2c1ncn2[C@@H]1O[C@H](CO)[C@@H](O)[C@H]1O	7 µM	–	–	–	0.003 µM	–	–
Nc1nc(Cl)nc2c1ncn2[C@@H]1O[C@H](CO)[C@@H](O)[C@H]1O	0.17 µM	–	–	–	0.013 µM	–	–
OC[C@H]1OC(n2cnc3c(NC4c5ccccc5-c5ccccc54)ncnc32)[C@H](O)[C@@H]1O (stereo partly specified)	–	6.2 µM	42 µM	–	–	–	–
OC[C@H]1OC(n2cnc3c(NCC4c5ccccc5CCc5ccccc54)ncnc32)[C@H](O)[C@@H]1O (stereo partly specified)	–	0.16 µM	0.39 µM	–	–	–	–
OC[C@H]1O[C@@H](n2cnc3c(NCc4ccccc4)ncnc32)[C@H](O)[C@@H]1O	2.3 µM	–	–	–	0.035 µM	–	–
OC[C@H]1O[C@@H](n2cnc3c(NCCc4ccccc4)ncnc32)[C@H](O)[C@@H]1O	0.3 µM	–	0.16 µM	–	0.07 µM	–	–
OC[C@H]1O[C@@H](n2cnc3c(NC4CCCC4)ncnc32)[C@H](O)[C@@H]1O	0.003 µM	–	–	–	> 0.1 µM	–	–
OC[C@H]1OC(n2cnc3c(NCCc4cccc5ccccc45)ncnc32)[C@H](O)[C@@H]1O (stereo partly specified)	0.11 µM	0.0123 µM	0.23 µM	0.03 µM	–	–	–
OC[C@H]1O[C@@H](n2cnc3c(NCc4cccc5ccccc45)ncnc32)[C@H](O)[C@@H]1O	0.4 µM	0.024 µM	0.0091 µM	0.0012 µM	–	–	–

From ChEMBL document CHEMBL1124304 (J Med Chem, 1988)
